Laboratory results taken from patent US20240368191A1, “HETEROCYCLIC COMPOUNDS AND USES THEREOF” (Kumquat Biosciences Inc., priority 2021, published 2024).

Target: T1, KRAS G12D 1-169 (His-tagged, GDP-loaded) (Homo sapiens, UniProt P01116, G12D)
T1 construct: His -tagged GDP-loaded G12D 1-169; made in house; host or cells: E. coli, e.g. BL21 (DE3)
Test: Covalent modification of KRAS protein by intact-protein LC-MS
Type: binding
Settings: comparable or same conditions as K-Ras G12S
Protocol: Test compounds are prepared as 10 mM stock solutions in DMSO (Fisher cat #BP231-100). KRAS protein (His -tagged GDP-loaded wildtype 1-169, His -tagged GDP-loaded G12S 1-169 or His -tagged GDP-loaded G12D 1-169) is diluted to ˜2 μM in appropriate buffer (e.g., a Hepes buffer at physiological conditions). For testing KRAS modification, compounds are diluted to 50× final test concentration in DMSO in 96-well storage plates. 2 μl of the diluted 50× compounds are added to appropriate wells in the PCR plate (Fisher cat #AB-0800). ˜49 μl of the stock protein solution is added to each well of the 96-well PCR plate. Reactions are mixed carefully. The plate is sealed well with aluminum plate seal, and stored in drawer at room temperature for 24 hrs. 5 μl of 2% formic acid (Fisher cat #A117-50) in MilliQ H2O is then added to each well followed by mixing with a pipette. The plate is then resealed with aluminum seal and stored until mass spectrometry analysis.
The extent of covalent modification of KRAS proteins was determined by liquid chromatography electrospray mass spectrometry analysis of the intact proteins on a Thermo Q-Exactive Plus mass spectrometer. 20 μl of sample was injected onto a bioZen 3.6 μm Intact C4 column (Phenomenex cat #00B-4767-AN) placed in a column oven set to 40° C. and separated using a suitable LC gradient from ˜20% to ˜60% solvent B. Solvent A was 0.1% formic acid and solvent B was 0.1% formic acid in acetonitrile. HESI source settings were set to 40, 5 and 1 for the sheath, auxiliary and sweep gas flow, respectively. The spray voltage was 4 kV, and the capillary temperature was 320° C. S-lens RF level was 50 and auxiliary gas heater temperature was set to 200° C. The mass spectrometry was acquired using a scan range from 650 to 1750 m/z using positive polarity at a mass resolution of 70,000, AGC target of 1e6 ions and maximum injection time of 250 ms. The recorded protein mass spectrum was deconvoluted from the raw data file using Protein Deconvolution v4.0 (Thermo). The protein mass and adduct masses were exported with their peak intensities. The peak intensities for the unmodified and modified protein were used to calculate the percent covalent modification of the KRAS protein based on the following equation: % KRAS protein modification=((KRAS−compound)/(KRAS)+(KRAS−Compound))*100.

T1 sequence (P01116 1-169 isoform P01116-2 G12D): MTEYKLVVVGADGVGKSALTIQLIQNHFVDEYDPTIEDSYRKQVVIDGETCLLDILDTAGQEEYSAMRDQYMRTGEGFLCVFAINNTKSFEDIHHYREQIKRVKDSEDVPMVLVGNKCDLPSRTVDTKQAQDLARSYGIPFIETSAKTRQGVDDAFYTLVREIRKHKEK

Structure (SMILES)	covalent labeling of K-Ras G12D
COCCN1CCC(Oc2nc(N3CCCCC4(CN(C(=O)n5cncn5)C4)C3)c3cc(Cl)c(-c4ccc(F)c5sc(N)c(C#N)c45)c(F)c3n2)CC1 [Compound A119, 4-(4-(2-(1H-1,2,4-triazole-1-carbonyl)-2,6-diazaspiro[3.6]-decan-6-yl)-6-chloro-8-fluoro-2-((1-(2-methoxyethyl)piperi-din-4-yl)oxy)quinazolin-7-yl)-2-amino-7-fluorobenzo[b]-thiophene-3-carbonitrile]	essentially no detectable labeling
Nc1nc2c(-c3c(Cl)cc4c(N5CCCC6(CN(C(=O)n7cncn7)CCO6)C5)nc(OC[C@@]56CCCN5C[C@H](F)C6)nc4c3F)ccc(F)c2s1 (stereo partly drawn) [Compound A125, (8-(7-(2-amino-7-fluorobenzo-[d]thiazol-4-yl)-6-chloro-8-fluoro-2-(((2R,7aS)-2-fluoro-tetrahydro-1H-pyrrolizin-7a(5H)-yl)methoxy)quinazolin-4-yl)-1-oxa-4,8-diazaspiro[5.5]-undecan-4-yl)(1H-1,2,4-triazol-1-yl)methanone]	essentially no detectable labeling
N#Cc1c(N)sc2c(F)ccc(-c3c(Cl)cc4c(N5CCOC6(CN(C(=O)n7cncn7)C6)C5)nc(OC[C@@]56CCCN5C[C@H](F)C6)nc4c3F)c12 [Compound A162, 4-(4-(2-(1H-1,2,4-triazole-1-carbonyl)-5-oxa-2,8-diaza-spiro[3.5]nonan-8-yl)-6-chloro-8-fluoro-2-(((2R,7aS)-2-fluoro-tetrahydro-1H-pyrrolizin-7a(5H)-yl)methoxy)quinazolin-7-yl)-2-amino-7-fluorobenzo-[b]thiophene-3-carbonitrile]	essentially no detectable labeling
Cc1nc(C)n(C(=O)N2CC3(COCCN(c4nc(OC[C@@]56CCCN5C[C@H](F)C6)nc5c(F)c(-c6ccc(F)c7sc(N)c(C#N)c67)c(Cl)cc45)C3)C2)n1 [Compound A185, 2-amino-4-(6-chloro-4-(2-(3,5-dimethyl-1H-1,2,4-triazole-1-carbonyl)-6-oxa-2,9-diazaspiro-[3.6]decan-9-yl)-8-fluoro-2-(((2R,7aS)-2-fluorotetrahydro-1H-pyrrolizin-7a(5H)-yl)meth-oxy)quinazolin-7-yl)-7-fluoro-benzo[b]thiophene-3-carbonitrile]	essentially no detectable labeling

Continued, values first:

covalent labeling of K-Ras G12D	Structure (SMILES)
essentially no detectable labeling	N#Cc1c(N)sc2c(F)ccc(-c3ncc4c(N5CCCC6(CN(C(=O)n7cncn7)C6)C5)nc(OC[C@@]56CCCN5C[C@H](F)C6)nc4c3F)c12 [Compound A134, 4-(4-(2-(1H-1,2,4-triazole-1-carbonyl)-2,6-diazaspiro[3.5]-nonan-6-yl)-8-fluoro-2-(((2R,7aS)-2-fluorotetrahydro-1H-pyrrolizin-7a(5H)-yl)meth-oxy)pyrido[4,3-d]pyrimidin-7-yl)-2-amino-7-fluorobenzo[b]-thiophene-3-carbonitrile]
essentially no detectable labeling	N#Cc1c(N)sc2c(F)ccc(-c3ncc4c(N5CCOC6(CN(C(=O)n7cncn7)C6)C5)nc(OC[C@@]56CCCN5C[C@H](F)C6)nc4c3F)c12 [Compound A161, 4-(4-(2-(1H-1,2,4-triazole-1-carbonyl)-5-oxa-2,8-diaza-spiro[3.5]nonan-8-yl)-8-fluoro-2-(((2R,7aS)-2-fluorotetrahydro-1H-pyrrolizin-7a(5H)-yl)meth-oxy)pyrido[4,3-d]pyrimidin-7-yl)-2-amino-7-fluorobenzo[b]-thiophene-3-carbonitrile]
essentially no detectable labeling	N#Cc1c(N)sc2c(F)ccc(-c3c(Cl)cc4c(OC5CCCCN(C(=O)n6cncn6)C5)nc(OC[C@@]56CCCN5C[C@H](F)C6)nc4c3F)c12 (stereo partly drawn) [Compound A169, 4-(4-((1-(1H-1,2,4-triazole-1-carbonyl)azepan-3-yl)oxy)-6-chloro-8-fluoro-2-(((2R,7aS)-2-fluorotetrahydro-1H-pyrrolizin-7a(5H)-yl)methoxy)quinazolin-7-yl)-2-amino-7-fluorobenzo-[b]thiophene-3-carbonitrile]
